# Where two headings read alike, the source gives them in different places.
# Experiments:
# [1] = test system: individuals; conditions: human, in vivo
# From the text: A minimum clinically significant difference in VAS rating for pain or paraesthesia appears to range from 13 mm to 16 mm with a 95% confidence interval. (See e.g., Gallagher, et al., Am J Emerg Med. 2002; 20(4):287-90; Bouhassira, et al., Pain. 2004; 108(3):248-57; Poliakov, et al. Eur J Pain. 2011 November; 15(10):1015-22; and Eisenberg, et al. Eur J Pain. 1998; 2(4):321-327). VAS rating instruments have also been deemed specific and sensitive to detect the effects of an intervention on paraesthesia and neuropathic pain.
# [2] = cited from earlier work
# [3] = Pilot study: plasma β-alanine and net retention after oral ingestion (GC-MS); assay type: in vivo, human
# Experimental: Each subject completed three trials, labeled “A”, “B”, and “C” using a Latin square design (i.e. subject 1 completed trials in ABC order, subject 2 completed trials in BCA order, and subject 3 completed trials in CAB order). […] Blood samples were drawn into lithium heparin tubes at baseline (time 0), 30 min, 1 hr, 2 hr, 3 hr, 4 hr post ingestion, spun in a clinical centrifuge for 15 minutes, and processed to obtain plasma.
smiles,measurement,setting,value
"NCCC(=O)O [β-alanine, 3-Aminopropanoic acid]",anchored 100 mm VAS scores for paraesthesia,[1],60 mm-90 mm
same,severity of paraesthesia,[2]; oral doses of 40 mg/kg or higher,moderate-to-severe
same,severity of paraesthesia,[2]; oral doses of 40 mg/kg,severe
same,severity of paraesthesia,"[2]; oral, 10 mg/kg",relatively mild
same,"Net Loss (uMol), Mean (SD)",[3]; Mean (SD) of 3 subjects,9174.5 (862.96) uMol
same,Net Loss,"[3]; Subject 1, 0-4 hr collection",10167.5 µmol
same,Net Loss,"[3]; Subject 2, 0-4 hr collection",8606.6 µmol
same,Net Loss,"[3]; Subject 3, 0-4 hr collection",8749.3 µmol

# — patent US10130715B2 (priority 2013, dated 2018)
